Results as given in patent US12662478B2, “ATF6 modulators and uses thereof” (Altos Labs, Inc., priority 2019, dated 2026).

Key:
ATF6 [1] = target: T1, ATF6 (Homo sapiens, UniProt P18850); experiment: ERSE ATF6-luciferase assay in presence of Tg-induced ER stress (U2-OS ATF6 TRE-luciferase reporter cells); format: cell-based; conditions: in presence of ER stress (thapsigargin), Tg only = 100%, Table 2-3; for activity at 1 µM / activity at 10 µM: U2OS, 8 h; for activity at 1 µM / ATF6 activity @ 1 μM [%]: 1 μM test compound; for activity at 10 µM / ATF6 activity @ 10 μM [%]: 10 μM test compound; for ATF6 activity @ 1 μM [%] / ATF6 activity @ 10 μM [%]: 8 hr
T1 construct: endogenous in cells; host or cells: U2-OS (ATCC HTB-96) stably transduced with the Cignal Lenti ATF6 luc reporter (Qiagen #CLS-6031L)
T1 sequence (P18850 1-670): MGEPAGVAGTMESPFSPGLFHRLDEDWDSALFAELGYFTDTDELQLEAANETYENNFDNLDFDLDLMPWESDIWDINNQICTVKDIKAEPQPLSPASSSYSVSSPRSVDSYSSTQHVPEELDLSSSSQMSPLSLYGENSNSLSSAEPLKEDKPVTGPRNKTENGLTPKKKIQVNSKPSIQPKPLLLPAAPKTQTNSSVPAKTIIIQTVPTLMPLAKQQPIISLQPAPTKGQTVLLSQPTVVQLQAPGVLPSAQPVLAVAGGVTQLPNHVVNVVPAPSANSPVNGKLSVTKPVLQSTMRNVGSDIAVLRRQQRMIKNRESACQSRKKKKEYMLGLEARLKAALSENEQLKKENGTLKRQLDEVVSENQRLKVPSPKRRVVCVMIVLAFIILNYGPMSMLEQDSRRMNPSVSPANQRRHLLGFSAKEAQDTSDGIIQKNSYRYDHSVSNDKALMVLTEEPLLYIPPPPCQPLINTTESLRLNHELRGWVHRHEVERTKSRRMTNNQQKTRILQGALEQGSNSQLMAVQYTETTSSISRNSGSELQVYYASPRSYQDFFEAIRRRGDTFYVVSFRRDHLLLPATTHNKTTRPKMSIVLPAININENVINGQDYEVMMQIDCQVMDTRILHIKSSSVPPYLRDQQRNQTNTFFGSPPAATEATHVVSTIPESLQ
Method: (§1) To understand how exemplary compounds of the invention modulate the activity of ATF6 in absence or presence of endoplasmic reticulum (ER) stress, a Human bone osteosarcoma (U2-OS)-based TRE-luciferase reporter stable cell line was generated to determine the modulation of transcription of ATF6 target genes.
(§2) U2-OS cells were obtained from the American Type Culture Collection (ATCC HTB-96, ATCC Manassas, VA) and were cultured with growing medium containing Dulbecco's Modified Eagle's Medium (DMEM) (Cat. No.: SH30023.02, HyClone) supplemented with fetal bovine serum (FBS) 10% (Cat. No.: 16000044, Gibco) and 1% penicillin-streptomycin antibiotic cocktail (Cat. No.: SV30010, Hyclone).
(§3) Cignal Lenti ATF6 luc reporter (Qiagen #CLS-6031L) was used to produce a stable cell line in U2-OS cells (U2-OS ATF6 TRE-luciferase reporter). The lenti ATF6 reporter is a preparation of replication incompetent, VSV-g pseudotyped lentivirus particles expressing the firefly luciferase gene under the control of a minimal (m)CMV promoter and tandem repeats of the ATF6 transcriptional response element (TRE). The number of response elements as well as the intervening sequence between response elements has been experimentally optimized to maximize the signal to noise ratio.
(§4) Exemplary compounds of the invention and reference compounds were prepared from powder as 10 mM stock solutions in dimethyl sulfoxide (DMSO; Cat. No. #D2650, Sigma Aldrich) and stored at −80° C. in presence of N2 neutral atmosphere.
(§5) For the primary screening, 40,000 U2-OS ATF6 TRE-luciferase reporter cells were plated in poly-D-lysine (Cat. No.: P2636, Sigma) pre-coated white 96-well plates (Thermo Scientific Nunc #136101) with 100 μL of growing medium. Cells were incubated in humidified chambers for 24 hr.
For testing exemplary compounds in presence of ER-stress, cells were pre-treated for 30 min with 50 μL growing medium containing either vehicle (DMSO), 1 or 10 μM test compound. After this pre-incubation, 50 μL of a solution containing 0.2 μM of the ER stress-inducer thapsigargin (Tg) was added to the appropriate wells. The Tg solution also contains vehicle or test compounds at 1 or 10 μM as indicated. The final concentration of DMSO in each well was kept at 0.3%. Plates were incubated for 8 hr in humidified chambers.
After the 8 hr incubation, plates were cooled down to room temperature for 10 min prior to the luciferase assays. Luciferase reactions were performed using Luciferase Assay System (Cat. No.: E4550, Promega). Briefly, each well was washed with 100 μl of PBS 1× and, then, 20 μl of lysis reagent was added into each well. Plates were shaken for 10 min and, then, 50 μl of Luciferase Assay Reagent was added to each well. Luminescence was determined by integration of 1 s with a gain of 110 in a Synergy 4 Microplate reader. All measurements were carried out in triplicate.
The average activity determined from the wells containing vehicle only (DMSO, 0% of ATF6 activity) was used as blank and subtracted from the rest of measurements. The average activity determined from the wells containing Tg only was used as 100% of ATF6 activity. The percentage of modulation of exemplary compounds was calculated by normalizing values to potential maximal activation with Tg.
ATF6 activities of exemplary compounds at 1 and 10 μM in presence Tg-induced ER stress tested in the U2-OS ATF6 TRE-luciferase reporter cells were determined and are shown in Table 2-2 and Table 3-2.

ATF6 [2] = target: T1, ATF6; experiment: ERSE ATF6-luciferase assay in absence of ER stress (U2-OS ATF6 TRE-luciferase reporter cells); format: cell-based; conditions: in absence of ER stress (no Tg), normalized to maximal activation with Tg; for activation at 1 µM / activation at 10 µM: U2OS, 8 h; for activation at 1 µM / ATF6 activity @ 1 μM-No Tg [%]: 1 μM test compound; for activation at 1 µM: Table 3-3, read-out: ATF6 activity @ 1 μM-No Tg [%]; for activation at 10 µM / ATF6 activity @ 10 μM - No Tg [%]: 10 μM test compound; for activation at 10 µM: Table 3-3, read-out: ATF6 activity @ 10 μM - No Tg [%]; for ATF6 activity @ 10 μM - No Tg [%] / ATF6 activity @ 1 μM-No Tg [%]: 8 hr, Table 3-3
Method: as §1, §2, §3, §4, §5
For testing exemplary compounds in absence of ER-stress, cells were treated for 8 hr with 100 μL growing medium containing either vehicle (DMSO), 1 or 10 μM test compound or 0.1 μM Tg. The final concentration of DMSO in each well was kept at 0.3%. Plates were incubated in humidified chambers.
After 8 hr of incubation, plates were cooled down to room temperature for 10 min prior to luciferase assays. Luciferase reactions were performed as above. Luminescence was read by integration of 1 s with a gain of 110 in a Synergy 4 Microplate reader. All measurements were carried out in triplicate.
The average activity determined from the wells containing vehicle only (DMSO, 0% of ATF6 activity) was used as blank and subtracted from the rest of measurements. The percentage of modulation of exemplary compound was calculated by normalizing values to potential maximal activation with Tg.
ATF6 activities of exemplary compounds at 1 and 10 μM in absence of Tg-induced ER stress in the U2-OS ATF6 TRE-luciferase reporter cells were determined and are shown in Table 3-2, and Table 3-3.

Compound | activity at 1 µM (ATF6 [1]) [%] | activity at 10 µM (ATF6 [1]) [%] | activation at 1 µM (ATF6 [2]) [%] | activation at 10 µM (ATF6 [2]) [%] | ATF6 activity @ 1 μM [%] (ATF6 [1]) | ATF6 activity @ 10 μM - No Tg [%] (ATF6 [2]) | ATF6 activity @ 10 μM [%] (ATF6 [1]) | ATF6 activity @ 1 μM-No Tg [%] (ATF6 [2])
O=C(Nc1cnn(C2CNC2)c1)c1cc(-c2ccco2)on1 [Compound 3-3, N-(1-(azetidin-3-yl)-1H-pyrazol-4-yl)-5-(furan-2-yl)isoxazole-3-carboxamide] | 125 to 150 | – | 0 to 25 | – | – | – | – | –
O=C(Nc1cnn(C2CCNC2)c1)c1cc(-c2ccco2)on1 (centres unmarked) [Compound 3-4, 5-(furan-2-yl)-N-(1-(pyrrolidin-3-yl)-1H-pyrazol-4-yl)isoxazole-3-carboxamide] | 125 to 150 | > 150 | 0 to 25 | 0 to 25 | – | – | – | –
O=C(Nc1cnn(Cc2c(Cl)cncc2Cl)c1)c1cc(-c2ccco2)on1 [Compound 3-6, N-(1-((3,5-dichloropyridin-4-yl)methyl)-1H-pyrazol-4-yl)-5-(furan-2-yl)isoxazole-3-carboxamide] | 100 to 125 | 125 to 150 | 0 to 25 | 0 to 25 | – | – | – | –
O=C(Nc1cnn(C2CCOC2)c1)c1cc(-c2cccs2)on1 (centres unmarked) [Compound 3-19, N-(1-(tetrahydrofuran-3-yl)-1H-pyrazol-4-yl)-5-(thiophen-2-yl)isoxazole-3-carboxamide] | > 150 | > 150 | 0 to 25 | 25 to 50 | – | – | – | –
CC(C1CCOC1)n1cc(NC(=O)c2cc(-c3ccco3)on2)cn1 (centres unmarked) [Compound 3-25, 5-(furan-2-yl)-N-(1-(1-(tetrahydrofuran-3-yl)ethyl)-1H-pyrazol-4-yl)isoxazole-3-carboxamide] | – | – | – | – | + (+ refers to 100% < % activity < 125% at 1 or 10 μM) | + (+ refers to 0% < % activity < 25% at 1 or 10 μM test compound) | +++ (+++ refers to >150% at 1 or 10 μM test compound) | + (+ refers to 0% < % activity < 25% at 1 or 10 μM test compound)
CC(C1CCOC1)n1cc(NC(=O)c2cc(-c3ccco3)on2)cn1 (centres unmarked) [Compound 3-26, 5-(furan-2-yl)-N-(1-(1-(tetrahydrofuran-3-yl)ethyl)-1H-pyrazol-4-yl)isoxazole-3-carboxamide] | – | – | – | – | +++ (+++ refers to >150% at 1 or 10 μM test compound) | +++ (+++ refers to % activity >50 % at 1 or 10 μM test compound) | +++ (+++ refers to >150% at 1 or 10 μM test compound) | + (+ refers to 0% < % activity < 25% at 1 or 10 μM test compound)
CC(C1CCOC1)n1cc(NC(=O)c2cc(-c3ccco3)on2)cn1 (centres unmarked) [Compound 3-27, 5-(furan-2-yl)-N-(1-(1-(tetrahydrofuran-3-yl)ethyl)-1H-pyrazol-4-yl)isoxazole-3-carboxamide] | – | – | – | – | + (+ refers to 100% < % activity < 125% at 1 or 10 μM) | ++ (++ refers to 25% < % activity < 50% at 1 or 10 μM test compound) | +++ (+++ refers to >150% at 1 or 10 μM test compound) | + (+ refers to 0% < % activity < 25% at 1 or 10 μM test compound)

Second part, led by results:

activity at 1 µM (ATF6 [1]) [%] | activity at 10 µM (ATF6 [1]) [%] | activation at 1 µM (ATF6 [2]) [%] | activation at 10 µM (ATF6 [2]) [%] | Compound | ATF6 activity @ 1 μM [%] (ATF6 [1]) | ATF6 activity @ 10 μM - No Tg [%] (ATF6 [2]) | ATF6 activity @ 10 μM [%] (ATF6 [1]) | ATF6 activity @ 1 μM-No Tg [%] (ATF6 [2])
> 150 | > 150 | 0 to 25 | 0 to 25 | O=C(Nc1cnn(CC2CCCC2)c1)c1cc(-c2ccco2)on1 [Compound 3-2, N-(1-(cyclopentylmethyl)-1H-pyrazol-4-yl)-5-(furan-2-yl)isoxazole-3-carboxamide] | – | – | – | –
125 to 150 | > 150 | 0 to 25 | 0 to 25 | CC(C1CCCC1)n1cc(NC(=O)c2cc(-c3ccco3)on2)cn1 (centres unmarked) [Compound 3-5, N-(1-(1-cyclopentylethyl)-1H-pyrazol-4-yl)-5-(furan-2-yl)isoxazole-3-carboxamide] | – | – | – | –
– | > 150 | 0 to 25 | – | CC(C1CCOC1)n1cc(NC(=O)c2cc(-c3ccco3)on2)cn1 (centres unmarked) [Compound 3-24, 5-(furan-2-yl)-N-(1-(1-(tetrahydrofuran-3-yl)ethyl)-1H-pyrazol-4-yl)isoxazole-3-carboxamide] | + (+ refers to 100% < % activity < 125% at 1 or 10 μM) | ++ (++ refers to 25% < % activity < 50% at 1 or 10 μM test compound) | – | –
